Test results published in patent US11634425B2, “Pharmaceutical compounds” (priority 2019, dated 2023).
Read-outs that look alike come from different tables or passages of the source.

Key:
RSV A2 = test: RSV plaque reduction assay; format: cell-based, respiratory syncytial virus (RSV); settings: human respiratory syncytial virus, HepG2, Hep-G2 cells, mean of at least two experiments
Procedure, shortened: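 RSV A2 at 100 PFU/well was premixed with eight compound dilutions and added to confluent Hep-G2 monolayers for 2 h at 37 °C. Cells were then kept 2 days under a DMEM/2% FBS/0.8% CMC overlay containing compound. Immunostained plaques were counted relative to virus controls, and EC50 came from 4-parameter fits, averaged over at least two experiments.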

Cell cytotoxicity (CC50) = format: cell-based; settings: human; mean of at least two experiments
Procedure, shortened: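 Values are means of ≥2 independent runs, rounded to whole units, from 4-parameter variable-slope curve fits. Toxicity measured in Hep-G2 cells run alongside RSV plaque-reduction assays.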

in vitro = in vitro ADME; settings: microsomes, pH 7.4, 1 μM compound, 0.5 mg/mL protein, read-out: Liver Microsomal Stability t1/2
Protocol: Compounds were subjected to the following assays to investigate liver microsomal stability and hepatocyte stability.
Microsomal Incubation: Experimental Procedure
Pooled liver microsomes were purchased from a reputable commercial supplier and stored at −80° C. prior to use. Microsomes (final protein concentration 0.5 mg/mL), 0.1 M phosphate buffer pH 7.4 and test compound (final substrate concentration 1 μM; final DMSO concentration 0.25%) were pre-incubated at 37° C. prior to the addition of NADPH (final concentration 1 mM) to initiate the reaction. The final incubation volume was 50 μL. A control incubation was included for each compound tested where 0.1 M phosphate buffer pH 7.4 was added instead of NADPH (minus NADPH). Two control compounds were included with each species. All incubations were performed singularly for each test compound. Each compound was incubated for 0, 5, 15, 30 and 45 min. The control (minus NADPH) was incubated for 45 min only. The reactions were stopped by transferring incubate into acetonitrile at the appropriate time points, in a 1:3 ratio. The termination plates are centrifuged at 3,000 rpm for 20 min at 4° C. to precipitate the protein. Following protein precipitation, the sample supernatants were combined in cassettes of up to 4 compounds, internal standard added, and samples analysed by LC-MS/MS. From a plot of ln peak area ratio (compound peak area/internal standard peak area) against time, the gradient of the line was determined. Subsequently, half-life (t1/2) and intrinsic clearance (CLint) were calculated.

Row | Compound | EC50 (RSV A2) [nM] | CC50 (Cell cytotoxicity (CC50)) [nM] | half-life at 1 μM (in vitro; dog) [h] | half-life at 1 μM (in vitro; human) [h] | half-life at 1 μM (in vitro; rat) [h]
1 | Cc1cnc2c(C(=O)N[C@H]3N=C(c4ccccc4)c4cccc(F)c4NC3=O)c(-c3ccccc3F)nn2c1 [Example 34, N-[(3S)-9-Fluoro-2-oxo-5-phenyl-1,3-dihydro-1,4-benzodiazepin-3-yl]-2-(2-fluorophenyl)-6-methylpyrazolo[1,5-a]pyrimidine-3-carboxamide] | 23 | > 25000 | 1.44 | > 2.33 | 1.08
2 | Cc1ccn2nc(-c3ccc(F)cc3F)c(C(=O)N[C@H]3N=C(c4ccccc4)c4cccc(F)c4NC3=O)c2n1 [Example 36, 2-(2,4-Difluorophenyl)-N-[(3S)-9-fluoro-2-oxo-5-phenyl-1,3-dihydro-1,4-benzodiazepin-3-yl]-5-methylpyrazolo[1,5-a]pyrimidine-3-carboxamide] | 27 | > 25000 | 3.7 | > 2.33 | 0.557
3 | Cc1ccnc2c(C(=O)N[C@H]3N=C(c4ccccc4)c4ccccc4NC3=O)c(-c3ccccc3F)nn12 [Example 37, 2-(2-Fluorophenyl)-7-methyl-N-[(3S)-2-oxo-5-phenyl-1,3-dihydro-1,4-benzodiazepin-3-yl]pyrazolo[1,5-a]pyrimidine-3-carboxamide] | 39 | > 25000 | 1.95 | > 2.33 | 0.842
4 | O=C(N[C@H]1N=C(c2ccccc2)c2ccccc2NC1=O)c1c(-c2ccccc2F)nn2ccc(N3CCOCC3)nc12 [Example 39, 2-(2-Fluorophenyl)-5-(morpholin-4-yl)-N-[(3S)-2-oxo-5-phenyl-2,3-dihydro-1H-1,4-benzodiazepin-3-yl]pyrazolo[1,5-a]pyrimidine-3-carboxamide] | 62 | > 25000 | 0.255 | 1.33 | 0.538
5 | O=C(N[C@H]1N=C(c2ccccc2)c2cccc(F)c2NC1=O)c1c(-c2cccc(F)c2F)nn2cccnc12 [Example 42, 2-(2,3-Difluorophenyl)-N-[(3S)-9-fluoro-2-oxo-5-phenyl-1,3-dihydro-1,4-benzodiazepin-3-yl]pyrazolo[1,5-a]pyrimidine-3-carboxamide] | 41 | > 14000 | 12.2 | > 2.33 | 2.83
6 | O=C(N[C@H]1N=C(c2ccccc2)c2ccccc2NC1=O)c1c(-c2cccc(F)c2F)nn2cccnc12 [Example 43, 2-(2,3-Difluorophenyl)-N-[(3S)-2-oxo-5-phenyl-1,3-dihydro-1,4-benzodiazepin-3-yl]pyrazolo[1,5-a]pyrimidine-3-carboxamide] | 60 | > 25000 | 0.97 | 3.35 | 41.5
7 | O=C(N[C@H]1N=C(c2ccccc2)c2cccc(F)c2NC1=O)c1c(-c2c(F)cccc2F)nn2cccnc12 [Example 44, 2-(2,6-Difluorophenyl)-N-[(3S)-9-fluoro-2-oxo-5-phenyl-1,3-dihydro-1,4-benzodiazepin-3-yl]pyrazolo[1,5-a]pyrimidine-3-carboxamide] | 87 | > 25000 | 12.5 | 9.07 | 3.85
8 | O=C(N[C@H]1N=C(c2ccccc2)c2ccccc2NC1=O)c1c(-c2ccc(NC3CC3)nc2F)nn2cccnc12 [Example 48, 2-[6-(Cyclopropylamino)-2-fluoropyridin-3-yl]-N-[(3S)-2-oxo-5-phenyl-1,3-dihydro-1,4-benzodiazepin-3-yl]pyrazolo[1,5-a]pyrimidine-3-carboxamide] | 13 | > 25000 | 0.37 | 14.8 | 3.62
9 | CCc1ccc(-c2nn3cccnc3c2C(=O)N[C@H]2N=C(c3ccccc3)c3ccccc3NC2=O)cn1 [Example 54, 2-(6-Ethylpyridin-3-yl)-N-[(3S)-2-oxo-5-phenyl-1,3-dihydro-1,4-benzodiazepin-3-yl]pyrazolo[1,5-a]pyrimidine-3-carboxamide] | 151 | > 25000 | 1.32 | 2.92 | 1.28
10 | CC(C)c1ccc(-c2nn3cccnc3c2C(=O)N[C@H]2N=C(c3ccccc3)c3cccc(F)c3NC2=O)cn1 [Example 59, 2-(6-Propan-2-ylpyridin-3-yl)-N-[(3S)-9-fluoro-2-oxo-5-phenyl-1,3-dihydro-1,4-benzodiazepin-3-yl]pyrazolo[1,5-a]pyrimidine-3-carboxamide] | 60 | > 25000 | 1.51 | 2.28 | 1
11 | Cn1ncc2cc(-c3nn4cccnc4c3C(=O)N[C@H]3N=C(c4ccccc4)c4cccc(F)c4NC3=O)ccc21 [Example 63, N-[(3S)-9-fluoro-2-oxo-5-phenyl-1,3-dihydro-1,4-benzodiazepin-3-yl]-2-(1-methylindazol-5-yl)pyrazolo[1,5-a]pyrimidine-3-carboxamide] | 66 | > 25000 | 2.53 | 1.88 | 3.78
12 | Cc1cncc(-c2nn3cccnc3c2C(=O)N[C@H]2N=C(c3ccccc3)c3cccc(F)c3NC2=O)c1 [Example 64, N-[(3S)-9-fluoro-2-oxo-5-phenyl-1,3-dihydro-1,4-benzodiazepin-3-yl]-2-(5-methylpyridin-3-yl)pyrazolo[1,5-a]pyrimidine-3-carboxamide] | 100 | > 18800 | 3.58 | 24.2 | 1.7
13 | CC(C)Nc1ccc(-c2nn3cccnc3c2C(=O)N[C@H]2N=C(c3ccccc3)c3ccccc3NC2=O)c(F)n1 [Example 69, 2-[2-Fluoro-6-(propan-2-ylamino)pyridin-3-yl]-N-[(3S)-2-oxo-5-phenyl-1,3-dihydro-1,4-benzodiazepin-3-yl]pyrazolo[1,5-a]pyrimidine-3-carboxamide] | 19 | > 25000 | 0.447 | 3.22 | 2.43
14 | CC(C)Nc1ccc(-c2nn3cccnc3c2C(=O)N[C@H]2N=C(c3ccccc3)c3cccc(F)c3NC2=O)c(F)n1 [Example 70, N-[(3S)-9-Fluoro-2-oxo-5-phenyl-1,3-dihydro-1,4-benzodiazepin-3-yl]-2-[2-fluoro-6-(propan-2-ylamino)pyridin-3-yl]pyrazolo[1,5-a]pyrimidine-3-carboxamide] | 23 | > 25000 | 0.525 | 3.45 | 1.65
15 | O=C(N[C@H]1N=C(c2ccccc2)c2cccc(F)c2NC1=O)c1c(-c2ccc(N3CCOCC3)nc2)nn2cccnc12 [Example 72, N-[(3S)-9-fluoro-2-oxo-5-phenyl-1,3-dihydro-1,4-benzodiazepin-3-yl]-2-(6-morpholin-4-ylpyridin-3-yl)pyrazolo[1,5-a]pyrimidine-3-carboxamide] | 118 | > 25000 | 0.857 | 3 | 2.63
16 | CC(C)Nc1ccc(-c2nn3cccnc3c2C(=O)N[C@H]2N=C(c3ccccc3)c3cccc(F)c3NC2=O)cn1 [Example 74, N-[(3S)-9-Fluoro-2-oxo-5-phenyl-1,3-dihydro-1,4-benzodiazepin-3-yl]-2-[6-(propan-2-ylamino)pyridin-3-yl]pyrazolo[1,5-a]pyrimidine-3-carboxamide] | 28 | > 25000 | 0.725 | 4.4 | 1.17
17 | O=C(N[C@H]1N=C(c2ccccc2)c2cccc(F)c2NC1=O)c1c(-c2cnc3[nH]ccc3c2)nn2cccnc12 [Example 75, N-[(3S)-9-Fluoro-2-oxo-5-phenyl-1,3-dihydro-1,4-benzodiazepin-3-yl]-2-(1H-pyrrolo[2,3-b]pyridin-5-yl)pyrazolo[1,5-a]pyrimidine-3-carboxamide] | 44 | > 25000 | 1.45 | 11.3 | 0.833
18 | Cc1ccc2nc(-c3ccc(F)cn3)c(C(=O)N[C@H]3N=C(c4ccccc4)c4cccc(F)c4NC3=O)n2n1 [Example 78, N-[(3S)-9-fluoro-2-oxo-5-phenyl-1,3-dihydro-1,4-benzodiazepin-3-yl]-2-(5-fluoropyridin-2-yl)-6-methylimidazo[1,2-b]pyridazine-3-carboxamide] | 81 | > 25000 | 4.17 | 3.83 | 0.923
